Results as given in patent US10413505B1, “Pharmaceutical compositions and methods of using the same” (priority 2017, dated 2019).

Tests used:
Sprague Dawley rats [1] = experiment: Example 9 benzoylecgonine intranasal toxicity, Single-Dose Phase; format: in vivo, rat
Experimental: Benzoylecgonine in the vehicle (deionized water) was administered by intranasal instillation once to a group (Group 2) of Sprague Dawley rats at a dose level of 8.8 mg/kg. […] The dose volume was 0.22 mL/kg, divided between the 2 nares, for both groups. Groups 1 and 2 each consisted of 20 animals/sex. Following dose administration, 9 to 10 animals/sex/group were euthanized on Study Day 1; the remaining 10 animals/sex/group were euthanized following a 14-day nondosing (recovery) period. Criteria for evaluation included daily mortality observations, daily clinical observations, detailed physical observations, body weights, food consumption, clinical pathology (hematology, coagulation, serum chemistry, and urinalysis), organ weights, gross pathology, and microscopic examination of select tissues.
(§1) Organization of Test Groups, Dosage Levels, and Treatment Regimen—The vehicle and test article formulations were administered by intranasal instillation into each naris via a syringe equipped with stainless steel-shafted, stainless steel ball-tipped dosing cannula once (Single-Dose Phase) or once daily for 14 consecutive days (Repeat-Dose Phase), through the day prior to the primary necropsy. The same syringe and dosing cannula was used to administer the dose across both nares for a given animal on a given dosing day. The total dose volume administered per dose was split approximately equally across each naris, such that approximately half of the total dose volume was administered into one naris, and the remaining was administered into the other naris. Treatment administration across each naris for an individual animal occurred at approximately the same time. The dose volume for all groups was 0.22 mL/kg. Individual doses were based on the most recently recorded body weights. Adjusted doses became effective the day of collection of the weekly body weights. The first day of dosing was Study Day 0; the first week of dosing was Study Week 0.
(§2) All animals were observed twice daily, once in the morning and once in the afternoon, for mortality and moribundity. Animals found dead were examined macroscopically as soon as possible to ensure that tissues were not lost due to autolysis.
(§3) Clinical examinations were performed at the time of dose administration and 1 to 2 hours following dose administration. During the recovery period, the animals were observed once daily. The absence or presence of findings was recorded for individual animals at the scheduled intervals. For the Single-Dose Phase, detailed physical examinations were conducted on all animals within 4 days of receipt, on the day of randomization, and on Study Days 0, 1 (for animals scheduled for necropsy), 7, and 14. For the Repeat-Dose Phase, detailed physical examinations were conducted on all animals within 4 days of receipt, on the day of randomization, weekly (t 2 days) during the study period, and on the day of the scheduled necropsies (see Appendix 1—Study Protocol and Deviations). Daily observations during the recovery period were not necessary on days when detailed physical examinations were conducted.
(§4) Individual body weights were recorded within 4 days of receipt, on the day of randomization, Study Day 0 (prior to dosing), weekly (±2 days) during the study period, and on the day prior to the scheduled necropsies (nonfasted). Mean body weights and mean body weight changes were calculated for the corresponding intervals. Final body weights (fasted) were recorded on the day of the scheduled necropsies.
(§5) Cage food weights were recorded once weekly (±2 days) beginning following randomization and throughout the study period. Food consumption was calculated as g/animal/day for the corresponding body weight intervals.
(§6) Blood and urine samples for clinical pathology evaluations (hematology, coagulation, serum chemistry, and urinalysis) were collected from all animals assigned to the scheduled necropsies. […]

Sprague Dawley rats [2] = experiment: Example 9 benzoylecgonine intranasal toxicity, Repeat-Dose Phase; format: in vivo, rat
Experimental: Benzoylecgonine in the vehicle was administered by intranasal instillation once daily for 14 days to a group (Group 2) of Sprague Dawley rats at a dosage level of 8.8 mg/kg/day. […] The dose volume was 0.22 mL/kg, divided between the 2 nares, for both groups. Groups 1 and 2 each consisted of 15 animals/sex. Following 14 days of dose administration, 10 animals/sex/group were euthanized; the remaining 5 animals/sex/group were euthanized following a 14-day nondosing (recovery) period. Criteria for evaluation included daily mortality observations, daily clinical observations, detailed physical observations, body weights, food consumption, clinical pathology (hematology, coagulation, serum chemistry, and urinalysis), organ weights, gross pathology, and microscopic examination of select tissues.
as §1, §2, §3, §4, §5, §6

[3] = Literature disposition of cocaine (intravenous clearance, urinary elimination); format: in vivo, human; details: humans
Description: In humans, cocaine is eliminated predominantly by metabolism, with little excreted unchanged in the urine. Only 1% to 10% of a dose of cocaine is eliminated unmetabolized in urine.

[4] = topical application with cotton pledgets; cited from earlier work
[5] = 8.8 mg/kg once, intranasal instillation
[6] = 8.8 mg/kg/day for 14 days, intranasal instillation

For `CN1[C@H]2CC[C@@H]1[C@@H](C(=O)O)[C@@H](OC(=O)c1ccccc1)C2` [BE, benzoylecgonine], the body weights (Sprague Dawley rats [1]; [5]) was “unaffected”, the clinical observations (Sprague Dawley rats [1]; [5]) was “no test article-related clinical observations” and the food consumption (Sprague Dawley rats [1]; [5]) was “unaffected”. For the same compound, the “hematology and coagulation parameters” value (Sprague Dawley rats [1]; [5]) was “unaffected”, the “macroscopic examination at necropsy” value (Sprague Dawley rats [1]; [5]) was “No test article-related macroscopic findings” and the organ weights (Sprague Dawley rats [1]; [5]) was “No test article-related organ weight findings”. The serum chemistry parameters (Sprague Dawley rats [1]; [5]) was “unaffected”, the survival (Sprague Dawley rats [1]; [5]) was “no test article-related effects on survival” and the urinalysis parameters (Sprague Dawley rats [1]; [5]) was “unaffected”. The “microscopic examination (nasal cavity with turbinates)” value (Sprague Dawley rats [1]; 8.8 mg/kg once, intranasal instillation, also after 14-day recovery) was “No test article-related microscopic findings”, the “pH of the dosing formulation” value (Sprague Dawley rats [1]; Single-Dose Phase, 40 mg/mL in deionized water, pH meter) was 6.32 and the tolerability (Sprague Dawley rats [2]; 8.8 mg/kg once or once daily for 14 days, intranasal instillation) was “well tolerated”. For the same compound, the clinical observations (Sprague Dawley rats [2]; [6]) was “no test article-related clinical observations”, the food consumption (Sprague Dawley rats [2]; [6]) was “unaffected” and the “hematology and coagulation parameters” value (Sprague Dawley rats [2]; [6]) was “unaffected”. The “macroscopic examination at necropsy” value (Sprague Dawley rats [2]; [6]) was “No test article-related macroscopic findings”, the organ weights (Sprague Dawley rats [2]; [6]) was “No test article-related organ weight findings” and the serum chemistry parameters (Sprague Dawley rats [2]; [6]) was “unaffected”. For the same compound, the survival (Sprague Dawley rats [2]; [6]) was “All animals survived”, the urinalysis parameters (Sprague Dawley rats [2]; [6]) was “unaffected” and the “microscopic examination (nasal cavity with turbinates)” value (Sprague Dawley rats [2]; 8.8 mg/kg/day for 14 days, intranasal instillation, also after 14-day recovery) was “No test article-related microscopic findings”. For the same compound, the body weights (Sprague Dawley rats [2]; 8.8 mg/kg/day for 14 days, intranasal instillation, dosing period) was “unaffected”, the “pH of the dosing formulation” value (Sprague Dawley rats [2]; Repeat-Dose Phase, 40 mg/mL in deionized water, pH meter) was 6.32 and the “no-observed-effect level (NOEL)” value (Sprague Dawley rats [2]; intranasal instillation once or once daily for 14 days) was 8.8 mg/kg/day.

In the case of `COC(=O)[C@H]1[C@@H](OC(=O)c2ccccc2)C[C@@H]2CC[C@H]1N2C` [Cocaine, cocaine, reference compound], the “CLr as percent of CL” value [3] is listed as “less than 2%”, the “CLr as percent of human glomerular filtration rate (125 mL/min)” value [3] is listed as “less than 40%” and the “fraction absorbed from a cottonoid pledget” value [4] is listed as “approximately 37%”.
